How the values were obtained:
[1] = tested on: diet induced obese (DIO) mouse model; assay: Local injection of DBZ-NPs into inguinal WAT of diet-induced obese mice; type: in vivo; conditions: in solution and nontargeted NP forms, vs nontreated obese mice
Protocol: All procedures regarding animal maintenance and experimental use were performed according to the regulation presented by Purdue University's Animal Care and Use Committee. 10-week-old male die-induced obese (DIO) mice with the C57BL/6 background were purchased from Taconic and housed under normal condition at Purdue University. High-fat diet (Research Diets #D12492, 60% fat) was used to induce and maintain obesity in the mice. Mice with average body weight of 36 g at 14 weeks started to receive nanoparticle treatment. […]
For GTT, mice were intraperitoneally injected with 100 mg/ml D-glucose (2 g kg-1 body weight) after 16 h fasting. Blood was drawn from tails and glucose levels were measured by a glucometer (Accu-Check Active, Roche). […] Glucose concentrations were measured in the blood drawn from tails. […]
Serum levels of free fatty acids, glucose, cholesterol, and triglycerides from fasted DIO mice after treatment of nanoparticles for 5 weeks were examined by standard kits from Randox Laboratories. The insulin level in the serum was measured by ELISA according to the manufacturer's instructions (ALPCO). […]
Total RNA was extracted from cells or tissues through Trizol (Life Technologies) in accordance with the manufacture's protocol. […] The quantitative PCR was performed on the Roche Light Cycler 96 PCR System (Roche). […]

[2] = tested on: cultured white adipocytes; assay: Notch inhibition and brown fat gene expression in cultured white adipocytes; type: cell-based; conditions: vs DMSO
Text: (§1) Pharmacological inhibition of Notch signaling induces browning of white adipocytes during in vitro culture. Notch signaling is inhibited in cultured white adipocytes with the γ-secretase inhibitor DAPT (N—[N-(3,5-difluorophenacetyl)-1-alanyl]-S-phenylglycine t-butyl ester).

[3] = tested on: cultured white adipocytes; assay: Oxygen consumption rate of adipocytes treated with DAPT; type: cell-based; conditions: vs adipocytes treated with DMSO
Text: as §1

| SMILES | body weight gain [1] | Notch signaling (mRNA levels of Notch targets) [2] | expression of brown fat specific genes Ucp1, Cidea, Prdm16 and Ppargc1a [2] | oxygen consumption rate (OCR) [3] |
| --- | --- | --- | --- | --- |
| CN(CCOc1ccc(CC2SC(=O)NC2=O)cc1)c1ccccn1 (stereo not shown) [Rosi] | no difference in body weight gain |  |  |  |
| C[C@H](NC(=O)Cc1cc(F)cc(F)c1)C(=O)N[C@H](C(=O)OC(C)(C)C)c1ccccc1 [DAPT, (N—[N-(3,5-difluorophenacetyl)-1-alanyl]-S-phenylglycinet-butyl ester)] |  | inhibited Notch signaling | upregulated | higher |
